Measurements as given in patent publication US11352396B2, “Antimicrobial peptides and methods of using same” (Zoetis Services LLC, priority 2017, dated 2022).
Residues, ends and D or L forms follow the SMILES beside them.

Assays:
[1] = tested on: MRSP (Methicillin-Resistant Staphylococcus pseudintermedius); experiment: MIC against selected strains of MRSP; assay type: cell-based; parameters: key to MIC MRSP 72192 / MIC MRSP 76923 / MR 71994 / Mr 88493 / MR 72035 / MR 72192 / MR 76923 / MR 79882 / MR 80279 / MR 81926 / MR 86002 / MR 87665: MIC in μM (visual, first well with no growth); details: for MR 71994: MRSP strain 71994, Table 6; for MR 72035: MRSP strain 72035, Table 6; for MR 72192: MRSP strain 72192, Table 6; for MR 76923: MRSP strain 76923, Table 6; for MR 79882: MRSP strain 79882, Table 6; for MR 80279: MRSP strain 80279, Table 6; for MR 81926: MRSP strain 81926, Table 6; for MR 86002: MRSP strain 86002, Table 6; for MR 87665: MRSP strain 87665, Table 6; for Mr 88493: MRSP strain 88493, Table 6
In short: (§1)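 MIC read by eye as the first well showing no growth after 18–20 h incubation. Cultures at 0.5 McFarland were diluted 1:250 in Mueller-Hinton broth and exposed to peptide over 50 μM–0.05 μM in the assay, per CLSI VET01-S2 microbroth method.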

[2] = tested on: S. aureus ATCC 29213; assay type: cell-based; parameters: key to SA 29213: MIC in μM (lowest conc. with no visible growth); details: S. aureus 29213, Table 6
In short: (§2)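 Broth microdilution followed CLSI VET01-S2, with peptides serially diluted to in-assay concentrations of 50 μM to 0.05 μM. A 0.5 McFarland inoculum diluted 1:250 in Mueller-Hinton Broth was incubated with peptide for 18-20 hours. MIC was read visually as the first well without visible growth.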

[3] = tested on: MSSP (Methicillin-Susceptible Staphylococcus pseudintermedius); experiment: MIC against selected strains of MSSP; assay type: cell-based; parameters: MIC MSSP 49051 / MIC MSSP 81923 / MIC MSSP 84250 / Effect on MSSP 86000 / Effect on MSSP 72036 / Effect on MSSP 78032: unit not given beside the values; Effect on MSSP 71990 / Effect on MSSP 86001 / Effect on MSSP 72191 / Effect on MSSP 76986 / Effect on MSSP 77378 / Effect on MSSP 81923 / Effect on MSSP 84250 / Effect on MSSP 84658: unit: µM; details: for SP 49051: S. pseudintermedius 49051, Table 6; for Effect on MSSP 71990: strain 71990, Table 5; for Effect on MSSP 72036: strain 72036, Table 5; for Effect on MSSP 72191: strain 72191, Table 5; for Effect on MSSP 76986: strain 76986, Table 5; for Effect on MSSP 77378: strain 77378, Table 5; for Effect on MSSP 78032: strain 78032, Table 5; for Effect on MSSP 81923: strain 81923, Table 5; for Effect on MSSP 84250: strain 84250, Table 5; for Effect on MSSP 84658: strain 84658, Table 5; for Effect on MSSP 86000: strain 86000, Table 5; for Effect on MSSP 86001: strain 86001, Table 5
In short: as §1

[4] = tested on: E. coli ATCC 25922; assay type: cell-based; details: E. coli 25922, Table 6
In short: as §2

[5] = tested on: Canine-derived epithelial keratinocyte (CPEK) cells; assay type: cell-based
In short: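 Viability was read by CellTiter-Glo luminescence after overnight exposure (37 °C, 5% CO2) of canine keratinocytes to a peptide range of 50–0.05 μM. Percent effect used phosphate buffer as the zero control and 0.1% Triton X-100 as the full-effect control.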

[6] = tested on: cRBC; assay type: cell-based, canine
In short: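 Percent lysis, measured by absorbance at 405 nm, used 1% Triton X-100 as full effect and phosphate buffer as zero. Peptides spanned 50 µM–0.05 µM and were held with plasma-depleted washed erythrocytes at 37 °C for 1 h.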

[7] = tested on: beagle red blood cells; experiment: Red blood cell hemolysis assay, beagle; assay type: cell-based; details: compared with SEQ ID NO: 13 (tachyplesin), FIG. 1
Procedure: (§3) SEQ ID NO: 1 was selected for further research. Toxicity of SEQ ID NO: 1 to eukaryotic blood cells was compared to that of tachyplesin (SEQ ID NO: 13). A standard, well referenced red blood cell hemolysis assay was employed against multiple species to test the lysis potential of the peptides. Red blood cells (RBCs) were prepared and isolated by several centrifuge and wash steps to remove the plasma fraction. A dose titration (50 μM to 0.05 μM) of test peptides and control peptide melittin were spotted from 50 mM stocks in a 384 well plate. Prepared RBCs were incubated with peptide for one hour at 37° C. Percent hemolysis was measured by optical density at 405 nm and utilizing 1% TritonX100 as hundred percent effect (HPE) and phosphate buffer alone as zero percent effect (ZPE).

[8] = tested on: rat red blood cells; experiment: Red blood cell hemolysis assay, rat; assay type: cell-based; details: compared with SEQ ID NO: 13 (tachyplesin), FIG. 1
Procedure: as §3

[9] = tested on: mouse red blood cells; experiment: Red blood cell hemolysis assay, mouse; assay type: cell-based; details: compared with SEQ ID NO: 13 (tachyplesin)
Procedure: as §3

[10] = tested on: human red blood cells; experiment: Red blood cell hemolysis assay, human; assay type: cell-based; details: compared with SEQ ID NO: 13 (tachyplesin), FIG. 1
Procedure: as §3

[11] = tested on: bovine red blood cells; experiment: Red blood cell hemolysis assay, bovine; assay type: cell-based; details: compared with SEQ ID NO: 13 (tachyplesin)
Procedure: as §3

Compound | MR 71994 [1] | MR 72035 [1] | MR 72192 [1] | MR 76923 [1] | MR 79882 [1] | MR 80279 [1] | MR 81926 [1] | MR 86002 [1] | MR 87665 [1] | Mr 88493 [1] | SA 29213 [2] | SP 49051 [3] | Effect on MSSP 71990 [3] | Effect on MSSP 72036 [3] | Effect on MSSP 72191 [3] | Effect on MSSP 76986 [3] | Effect on MSSP 77378 [3] | Effect on MSSP 78032 [3] | Effect on MSSP 81923 [3] | Effect on MSSP 84250 [3] | further results
113 (KWCFRVCYRGICYRRCAD; Artificial Antimicrobial peptide) [compound 113] | 1.6 | 1.6 | 1.6 | 1.6 | 1.6 | 1.6 | 1.6 | 1.6 | 1.6 | 1.6 | 6.2 | 1.6 | 1.6 | 1.6 | 1.6 | 1.6 | 1.6 | 1.6 | 1.6 | 1.6 | Effect on MSSP 84658 [3]: 1.6; Effect on MSSP 86000 [3]: 1.6; Effect on MSSP 86001 [3]: 1.6; EC 25922 [4]: 1.6 µM; CPEK (50 μM) [5]: 15.7; cRBC (50 μM) [6]: 86.3
114 (KWCFRVCYRGICYRRCRR; Artificial Antimicrobial peptide) [compound 114] | 3.1 | 3.1 | 3.1 | 3.1 | 1.6 | 1.6 | 3.1 | 3.1 | 3.1 | 3.1 | 6.2 | 3.1 | 1.6 | 3.1 | 3.1 | 1.6 | 1.6 | 3.1 | 3.1 | 3.1 | Effect on MSSP 84658 [3]: 3.1; Effect on MSSP 86000 [3]: 3.1; Effect on MSSP 86001 [3]: 1.6; EC 25922 [4]: 1.6 µM; CPEK (50 μM) [5]: 11.9; cRBC (50 μM) [6]: 97.9
115 (GWCFRVCYRGICYRRCND; Artificial Antimicrobial peptide) [compound 115] | 1.6 | 1.6 | 1.6 | 1.6 | 0.8 | 1.6 | 1.6 | 1.6 | 1.6 | 1.6 | 3.1 | 1.6 | 1.6 | 1.6 | 1.6 | 1.6 | 0.8 | 1.6 | 1.6 | 1.6 | Effect on MSSP 84658 [3]: 1.6; Effect on MSSP 86000 [3]: 1.6; Effect on MSSP 86001 [3]: 1.6; EC 25922 [4]: 0.8 µM; CPEK (50 μM) [5]: 5.1; cRBC (50 μM) [6]: 94.6
116 (KWCFYVCYRGICYRRCND; Artificial Antimicrobial peptide) [compound 116] | 1.6 | 1.6 | 1.6 | 1.6 | 1.6 | 1.6 | 1.6 | 3.1 | 1.6 | 1.6 | 6.2 | 1.6 | 1.6 | 1.6 | 1.6 | 1.6 | 1.6 | 1.6 | 1.6 | 1.6 | Effect on MSSP 84658 [3]: 1.6; Effect on MSSP 86000 [3]: 1.6; Effect on MSSP 86001 [3]: 1.6; EC 25922 [4]: 0.8 µM; CPEK (50 μM) [5]: 16.0; cRBC (50 μM) [6]: 87.0
117 (GWCFYVCYRGICYRRCRD; Artificial Antimicrobial peptide) [compound 117] | 1.6 | 1.6 | 0.8 | 1.6 | 0.8 | 1.6 | 1.6 | 0.8 | 1.6 | 1.6 | 6.2 | 1.6 | 1.6 | 1.6 | 1.6 | 0.8 | 0.8 | 1.6 | 1.6 | 1.6 | Effect on MSSP 84658 [3]: 1.6; Effect on MSSP 86000 [3]: 1.6; Effect on MSSP 86001 [3]: 1.6; EC 25922 [4]: 0.8 µM; CPEK (50 μM) [5]: 14.7; cRBC (50 μM) [6]: 97.8
CC[C@H](C)[C@H](NC(=O)CNC(=O)[C@H](CCCNC(=N)N)NC(=O)[C@H](Cc1ccc(O)cc1)NC(=O)[C@H](CS)NC(=O)[C@@H](NC(=O)[C@H](CCCNC(=N)N)NC(=O)[C@H](Cc1ccccc1)NC(=O)[C@H](CS)NC(=O)[C@H](Cc1c[nH]c2ccccc12)NC(=O)[C@@H](N)CCCCN)C(C)C)C(=O)N[C@@H](CS)C(=O)N[C@@H](Cc1ccc(O)cc1)C(=O)N[C@@H](CCCNC(=N)N)C(=O)N[C@@H](CCCNC(=N)N)C(=O)N[C@@H](CS)C(=O)N[C@@H](CCCNC(=N)N)C(=O)N[C@@H](CC(=O)O)C(=O)O [SEQ ID NO: 1, KWCFRVCYRGICYRRCRD] (H-KWCFRVCYRGICYRRCRD-OH; N-terminus and C-terminus assumed) | – | – | – | – | – | – | – | – | – | – | – | – | – | – | – | – | – | – | – | – | times less toxic than SEQ ID NO: 13, beagle red blood cells [7]: 2-4 times; times less toxic than SEQ ID NO: 13, rat red blood cells [8]: 2-4 times; difference in toxicity versus SEQ ID NO: 13, mouse red blood cells [9]: negligible; times less toxic than SEQ ID NO: 13, human red blood cells [10]: 2-4 times; difference in toxicity versus SEQ ID NO: 13, bovine red blood cells [11]: negligible
